Test results published in patent publication US4299836A, “Novel ergol-8-ene and ergolin compounds and process for preparing same” (Richter Gedeon Vegyeszeti Gyar Rt., priority 1979, dated 1981).
Structures can show the parent of a compound that is named as a salt. Where two headings read alike, the source gives them in different places.

Key:
[1] = hypotensive activity in anesthetized cats; assay type: in vivo
Method: The measurements were performed in cats anesthetized with 30 mg/kg of Pentothal (5-ethyl-5-(1-methylbutyl)-2-thiobarbituric acid sodium salt). The left femoral artery was cannulated; the arterial blood pressure was measured by means of Statham P 23 pressure transducer and registrated by a Hellige polygraph. The test compounds were injected into the right femoral vein. (Method: Mc Leod L. J., in: Pharmacological Experiments on Intact Preparations, E. S. Livingstone, Edinburgh and London, 1970, pp. 65-66.)

serotonine receptor [2] = target: T1, serotonine receptor (Rattus norvegicus, UniProt P14842); experiment: in vivo; assay type: in vivo; set-up: For the in vivo studies the rat paw-oedema test was applied; from tissue; host or cells: live rat, paw; details: for ED50: read-out: In vivo test ED50, 50% inhibition of serotonine induced oedema
T1 sequence (P14842 whole entry): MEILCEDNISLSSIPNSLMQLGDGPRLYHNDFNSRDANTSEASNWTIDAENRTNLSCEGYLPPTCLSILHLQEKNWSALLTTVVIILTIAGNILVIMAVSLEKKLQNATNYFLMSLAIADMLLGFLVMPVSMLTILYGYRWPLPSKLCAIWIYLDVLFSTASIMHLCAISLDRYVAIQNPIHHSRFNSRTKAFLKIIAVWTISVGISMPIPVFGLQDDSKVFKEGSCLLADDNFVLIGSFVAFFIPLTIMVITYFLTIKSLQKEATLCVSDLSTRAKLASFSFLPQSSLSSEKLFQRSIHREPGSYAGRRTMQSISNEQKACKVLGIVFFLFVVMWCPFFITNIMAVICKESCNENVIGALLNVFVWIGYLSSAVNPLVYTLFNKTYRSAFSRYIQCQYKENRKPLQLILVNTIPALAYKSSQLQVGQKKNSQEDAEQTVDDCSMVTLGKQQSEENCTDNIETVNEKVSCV

serotonine receptor [3] = target: T1, serotonine receptor; set-up: The in vitro antiserotonine activity was determined in rat uterine horn preparation; from tissue; host or cells: rat uterine horn
dopamine receptor [4] = experiment: dopamine receptor stimulant activity in vitro, electrically stimulated mouse vas deferens preparation; details: for IC50: electrically stimulated mouse vas deferens, read-out: In vitro test Mouse vas deferens ID50
Method: The dopamine receptor stimulant activities in vitro were determined on electrically stimulated mouse vas deferens preparation (J. Hughes et al., Brit. J. Pharmacol. 53, 371-381 /1975/).

dopamine receptor [5] = experiment: antagonism of narcosis-potentiating effect of Haloperidol in rats; assay type: in vivo
Method: The in vivo measurements were performed on rats. The antagonism of narcosis-(Hexobarbital Na, 50 mg/kg i.v.)-potentiating effect of Haloperidol (5 mg/kg i.p.) was determined according to Borsy et al. (Acta Physiol. 27, 65-80 /1965/).

[6] = test system: reserpine-induced hypotermy; experiment: antagonism of reserpine-induced hypotermy in mice (antidepressant activity); assay type: in vivo; details: for antidepressant efficacy/potency compared with Imipramine: mouse, in vivo
Method: The antidepressant activity was assessed by measuring the antagonism of reserpine-induced hypotermy in mice. The change in body temperature (Δt) was detected as compared to the control animals (B. M. Askew, Life Sci. 10, 725 /1963/). The acute toxicity data /LD50 / were determined on mice; the evaluation was performed 24 hours after the administration of the compounds (J. T. Litchfield and F. Wilcoxon, J. Pharmacol. exp. Ther. 96, 99 /1949/).

[7] = acute toxicity (LD50) in mice; details: mouse, in vivo, evaluated 24 hours after administration
[8] = oral blood pressure lowering in awake spontaneously hypertensive rats; assay type: in vivo; details: 1.0 to 2.5 mg/kg orally
Source text: A group of the new compounds according to the invention exerts hypotensive effect on anesthetized animals in low dosages. […] The hypotensive effect of the compounds is accompanied by bradycardia; they inhibit the vasomotor reflexes acting both at central and peripheral target structures. The mechanism of hypotensive effect is different in certain aspects from that of the hydrogenated ergot alkaloids; namely, the new derivatives have no or only negligible adrenolytic activity. Thus, the hypotensive effect is mainly due to an action exerted on the vasomotor center. These derivatives lower the blood pressure also in hypertensive animals upon oral administration. […] The compounds according to the invention exert powerful hypotensive action also in cats.

Row | SMILES | Duration of action ([1]; 0.5 mg/kg i.v.) | ED50 (serotonine receptor [2]; po) | ED50 (serotonine receptor [2]; sc) | IC50 (serotonine receptor [3]) | Duration of action ([1]; 0.1 mg/kg i.v.) | also measured
1 | CN1CC(CN(CCOS(C)(=O)=O)S(C)(=O)=O)CC2c3cccc4c3c(cn4C)CC21 (centres unmarked) [Example 9, 1,6-dimethyl-8-[(N-methanesulfonyl, N-methanesulfonyloxy-ethyl)-aminomethyl]-ergoline hydrogen maleate] | 1 h | 1 mg/kg | 0.082 mg/kg | 106 nM | – | –
2 | CC(C)C[C@H]1C(=O)N2CCC[C@H]2[C@]2(O)O[C@](NC(=O)[C@@H]3C=C4c5cccc6[nH]c(Br)c(c56)C[C@H]4N(C)C3)(C(C)C)C(=O)N12 [Bromocryptine, 2-bromo-α-ergocryptine, reference compound] | – | – | – | – | – | IC50 (dopamine receptor [4]): 20 nM; Antagonism of Haloperidol effect in rats, Inhibition (dopamine receptor [5]; 10.0 mg/kg p.o.): 25.9%; Antagonism of Haloperidol effect in rats, Inhibition (dopamine receptor [5]; 10.0 mg/kg s.c.): 26.2%; Antagonism of Haloperidol effect in rats, Inhibition (dopamine receptor [5]; 30.0 mg/kg p.o.): 54.8%; Antagonism of Haloperidol effect in rats, Inhibition (dopamine receptor [5]; 30.0 mg/kg s.c.): 34.2%
3 | CN1CC(CN(CCN=[N+]=[N-])S(C)(=O)=O)CC2c3cccc4[nH]cc(c34)CC21 (centres unmarked) [Example 7, 6-Methyl-8-[(N-methanesulfonyl, N-azidoethyl)-aminomethyl]-ergoline hydrogen maleate] | 1 h | 1.7 mg/kg | 0.29 mg/kg | 2.48 nM | – | –
4 | CN1C[C@H](C(=O)N[C@]2(C)O[C@@]3(O)[C@@H]4CCCN4C(=O)[C@H](Cc4ccccc4)N3C2=O)C[C@@H]2c3cccc4[nH]cc(c34)C[C@H]21 [Dihydroergotamine, reference compound] | – | – | – | – | – | Duration of action ([1]; 0.2 mg/kg i.v.): 0.5 h
5 | CN1CC(CN(CCN=[N+]=[N-])S(C)(=O)=O)=CC2c3cccc4[nH]cc(c34)CC21 (centres unmarked) [Example 2, 6-Methyl-8-[(N-methanesulfonyl, N-azidoethyl)-aminomethyl]-ergol-8-ene hydrogen maleate] | 2 h | – | – | – | 2 h | Antidepressant activity, Δt (change in body temperature vs control) ([6]; 10 mg/kg p.o., reserpine-induced hypotermy, mice): +6.5 °C; antidepressant efficacy/potency compared with Imipramine [6]: higher than that of Imipramine; LD50 at 24 h ([7]; ip): 100 mg/kg; LD50 at 24 h ([7]; po): 100 mg/kg; IC50 (dopamine receptor [4]): 50 nM; dopamine stimulant efficacy compared with Bromocryptine in vitro (dopamine receptor [4]; in vitro): close to that of Bromocryptine; Antagonism of Haloperidol effect in rats, Inhibition (dopamine receptor [5]; 3.0 mg/kg s.c.): 68.7%; Antagonism of Haloperidol effect in rats, Inhibition (dopamine receptor [5]; 10.0 mg/kg p.o.): 38.9%; Antagonism of Haloperidol effect in rats, Inhibition (dopamine receptor [5]; 10.0 mg/kg s.c.): 92.2%; Antagonism of Haloperidol effect in rats, Inhibition (dopamine receptor [5]; 30.0 mg/kg p.o.): 48.2%; dopamine stimulant potency compared with Bromocryptine in vivo (dopamine receptor [5]; in vivo): higher than that of the reference substance; pharmacodynamic effects upon oral administration (in words) (dopamine receptor [5]; oral): could also be detected upon oral administration; blood pressure lowering (in words) [8]: lowered the blood pressure for several hours
6 | CN1CC(CN(CCN=[N+]=[N-])S(C)(=O)=O)=CC2c3cccc4c3c(cn4C)CC21 (centres unmarked) [Example 4, 1,6-Dimethyl-8-[(N-methanesulfonyl, N-azidoethyl/aminomethyl]-ergol-8-ene tartarate] | 2 h | 3.7 mg/kg | 0.22 mg/kg | 1.21 nM | 1.5 h | –
7 | CN1CC(CN(CCN=[N+]=[N-])S(C)(=O)=O)CC2c3cccc4c3c(c(Br)n4C)CC21 (centres unmarked) [Example 11, 2-bromo-1,6-dimethyl-8-[(N-methanesulfonyl, N-azidoethyl)-aminomethyl]-ergoline tartarate] | 2 h | 2 mg/kg | 0.3 mg/kg | 101 nM | – | Duration of action ([1]; 0.25 mg/kg i.v.): 2 h
8 | CN1CC(CN(CCN=[N+]=[N-])S(C)(=O)=O)=CC2c3cccc4[nH]c(Br)c(c34)CC21 (centres unmarked) [Example 3, 2-Bromo-6-methyl-8-[(N-methanesulfonyl, N-azidoethyl/aminomethyl]-ergol-8-ene hydrogen maleate] | 1.5 h | – | – | – | 1.5 h | –
9 | CN1CC(CN(CCN=[N+]=[N-])S(C)(=O)=O)CC2c3cccc4c3c(cn4C)CC21 (centres unmarked) [Example 10, 1,6-dimethyl-8-[(N-methanesulfonyl, N-azidoethyl)-aminomethyl]-ergoline hydrogen maleate] | 1.5 h | 0.47 mg/kg | 0.042 mg/kg | 2.4 nM | – | potency compared with Methysergide upon oral administration (serotonine receptor [2]; in vivo, po): more potent than Methysergide
10 | CN1CC(CN(CCOS(C)(=O)=O)S(C)(=O)=O)=CC2c3cccc4[nH]cc(c34)CC21 (centres unmarked) [Example 1, 6-Methyl-8-[(N-methanesulfonyl, N-methanesulfonyloxyethyl)-aminomethyl]-ergol-8-ene hydrogen maleate] | 1.5 to 2 h | – | – | – | – | antidepressant efficacy/potency compared with Imipramine [6]: equal to; LD50 at 24 h ([7]; ip): 100 mg/kg; LD50 at 24 h ([7]; po): 100 mg/kg
